# Values of other authors in patent US7514574B2, “Biodegradable penetration enhancers with multiple hydrophilic moieties” (priority 2003, dated 2009).
# Tests used:
# human cadaver skin = settings: tritiated water, Hirvonen et al (1993)
# mice = settings: mouse, in vivo, ip
SMILES,increase of skin permeability to T2O (enhanced flux over passive flux) (human cadaver skin) [times],LD50 (mice) [mg/kg]
"CCCCCCCCCCCCN1CCCCCC1=O [Azone, 1-dodecylazacycloheptane-2-one]",8,232
"CCCCCCCCCCCCOC(=O)CN(C)C [dodedyl, (N,N-dimethyl amino) acetate, dodecyl (N N-dimethyl amino) acetate]",13,
